Experimental data reported in PMC7488486 (Acta Pharmaceutica Sinica. B, 2020).

What was measured:
dopamine D2 receptors = dopamine D2 receptors (Homo sapiens, UniProt P14416); assay: [35S]GTPγS binding assay in transfected cells, dopamine D2 receptor; type: biochemical
adult male Wistar rats [1] = assay: Scratching and grooming behaviour; type: in vivo; conditions: 10 nmol/rat i.t.
adult male Wistar rats [2] = assay: Rotarod, evaluation of motor impairment; type: in vivo; conditions: 10 nmol/rat i.t., 30 min after administration, cut-off 300 s, n = 6
adult male Wistar rats [3] = test system: adult male Wistar rats
adult male Wistar rats [4] = assay: Tail-flick test, acute pain model, single administration; type: in vivo; conditions: i.t., 10 nmol/rat, mean ± SEM

Sequence of dopamine D2 receptors (P14416 whole entry): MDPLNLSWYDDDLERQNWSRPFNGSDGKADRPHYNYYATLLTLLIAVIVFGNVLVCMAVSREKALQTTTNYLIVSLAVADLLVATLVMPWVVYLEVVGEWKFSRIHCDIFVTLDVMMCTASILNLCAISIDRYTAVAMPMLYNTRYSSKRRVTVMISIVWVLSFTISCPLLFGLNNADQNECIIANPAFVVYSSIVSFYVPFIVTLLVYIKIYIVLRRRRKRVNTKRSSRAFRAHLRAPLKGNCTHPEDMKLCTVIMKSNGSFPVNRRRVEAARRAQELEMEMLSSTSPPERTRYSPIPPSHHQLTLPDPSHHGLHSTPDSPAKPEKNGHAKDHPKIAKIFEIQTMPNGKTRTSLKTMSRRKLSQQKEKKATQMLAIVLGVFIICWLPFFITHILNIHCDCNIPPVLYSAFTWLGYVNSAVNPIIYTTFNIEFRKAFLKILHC

Structure (SMILES)	Influence of domperidone on the [35S]GTPγS response (dopamine D2 receptors; dopamine receptor antagonist domperidone present, unpublished data)	Emax (dopamine D2 receptors; read-out: Emax, G protein activation at dopamine D2 receptor) [%]	Additional behaviours (wet-dog shakes, teeth chattering) (adult male Wistar rats [1])	Scratching response (adult male Wistar rats [1]; day 9, first 30 min post-injection)	Latency to fall, Rotarod (adult male Wistar rats [2]) [s]	Increase in the acute ED50 values after repeated treatment (adult male Wistar rats [3]; i.t., tail-flick test) [fold]	ED50 value (nmol, i.t.), Day 1 (adult male Wistar rats [3]; rat tail-flick, 30 min post-injection, Day 1, mean (CI 95%))	ED50 value (nmol, i.t.), Day 3 (adult male Wistar rats [3]; rat tail-flick, repeated daily treatment, Day 3, mean (CI 95%))	MPE (%), tail-flick test (adult male Wistar rats [4]; 15 min post-administration) [%]	MPE (%), tail-flick test (adult male Wistar rats [4]; 30 min post-injection) [%]
NCCc1ccc(O)c(O)c1 [Dopamine]	considerably reduced in the presence of domperidone	141								
CN1CC[C@]23c4c5ccc(O)c4O[C@H]2[C@@H](O)C=C[C@H]3[C@H]1C5 [Morphine]			wet-dog shakes and teeth chattering	strong scratch reflex in rats that weakened over time	222.33 ± 8.44	3.2	2.82 (2.33–3.41) nmol	9.03 (7.03–11.61) nmol	84.50 ± 3.84	86.23 ± 4.76
